Results as given in US20260315653A1, “ANTICOAGULANT COMPOSITIONS COMPRISING ANTI-PLATELET AND ANTI-INFLAMMATORY DRUGS AND METHODS AND DEVICES FOR THEIR USE” (Elixir Medical Corporation, priority 2023, published 2026).
Values joined by “and” are separate entries in the source; they are usually repeats but may differ in a detail not shown here. Identical values can stand only once.

Tests used:
[1] = tested on: Human Aortic SMC (HAoSMC); test: HAoSMC cell proliferation assay (CellTiter Aqueous, 72 hours); assay type: cell-based
Protocol: Cell proliferation assay was done in 96-well format. Low passage cells were trypsinized and seeded in 96 well plates at a density of ~4000 cells/well. The cells are allowed to attach overnight in a CO2 incubator. Next day, the medium was removed and replaced with fresh complete medium containing various concentrations of the test compounds. The final concentration of vehicle (DMSO) in the test medium was 0.1%. After adding test compounds, the cells were incubated for 72 hours. Following this period, the medium was removed and then added fresh medium (100 μl) containing CellTiter Aqueous (1× concentration final) to the wells and incubated for 2 hours in the CO2 incubator. At the end of incubation measured […] with a plate-reader. Controlled incubations with untreated cells and blank incubations containing only medium were included and tested similarly. Based on the cell viability assay the percentage inhibition of the cell proliferation was determined at the different concentrations of the drug tested.
Following the cell proliferation assay as indicated earlier, the percent cell proliferation inhibition was determined, and the assay results plotted to determine the IC50.

[2] = In vivo drug release from / drug remaining on implanted stents (HPLC); set-up: species or system porcine; conditions: 14 mm stents, day 7, n = 3
Protocol: The percentage and/or amount of each anticoagulant drug for or by each time point indicated were analyzed for each stent from the different devices in the example and the average drug tissue concentration reported.
Tissue concentrations and the amount of drug released from the stents were measured using stents implanted in porcine arteries for the drugs as indicated. The arteries at the designated time point were excised and a length of stented artery spanning from 5 mm proximal to the stented segment to 5 mm distal to the stented segment was cut. The stented artery was cut longitudinally with surgical scissors. The stents were separated from the tissue. The tissue content of each drug was analyzed using liquid chromatography mass spectroscopy (LCMS) and reported as a mean for each of the timepoint indicated. For drug remaining on each stent, each drug was extracted from the stent, measured using HPLC, and reported as a mean for each of the timepoint indicated as drug released or drug remaining on a stent (where drug remaining is equal to 100% minus the percentage of drug released).

Factor IIa = conditions: cited from earlier work
[3] = tested on: blood clotting (heparinized sheep blood); test: Net ACT initiated by platelet activation factor (PAF) and CaCl2 in heparinized sheep blood (Examples 6-11); conditions: single drug, 0.05 ng/mg; PAF & CaCl2; blood control 235 seconds
Protocol: In order to examine the potential synergistic effects between anti-inflammatory agents, direct factor Xa inhibitors, direct factor IIa inhibitors, antiplatelets (P2Y12 inhibitor and glycoprotein IIb/IIIa inhibitor, platelet activation factor and CaCl2 were utilized by measuring ACT. Heparinized sheep blood was used to preserve platelet function.
The activated clotting time (ACT) evaluation initiated by platelet activation factor (PAF) and calcium chloride (CaCl2) was performed in heparinized sheep blood and recorded employing the Hemochron® Response device. […] A target amount of drug solution was then added into the test tube. The test tube was gently swirled so that the blood and drug were well-mixed. […] The tube was gently shaken before being inserted into the Hemochron Response detector. The ACT read out was recorded and reported. The ACT of the control heparinized sheep blood in the absence of any drug as first measured to establish a baseline. […] Then ACT was measured in the presence of different concentrations of the drug measured. Selected drug combinations were then tested to evaluate for potential synergy in action between the drug combination. The net ACT (ACT minus blood control ACT) was utilized to visualize the synergistic effect. […] The figures are presented in ng/mg wherein the density of blood and tissue are approximately the same.

porcine coronary artery = test: In vivo porcine coronary stent implantation: fibrin score and late lumen loss (Examples 25-26); conditions: Table 9, day 7
Protocol: The drug eluting stent systems containing different anticoagulants prepared as described in Example 11 were evaluated at 3 hours, 6 hours, 1 day, 3 days, 6 days, 7 days, or 28 days following implantation in a porcine coronary artery model.
The porcine model was chosen as this model has been used extensively for stent and angioplasty studies resulting in a large volume of data on the vascular response properties and its correlation to human vascular response (Schwartz et al, Circulation. 2002; 106:1867 1873). The animals were housed and cared for in accordance with the Guide for the Care and Use of Laboratory Animals as established by the National Research Council.
After induction of anesthesia, the left or right femoral artery was accessed using standard techniques and an arterial sheath was introduced and advanced into the artery. Vessel angiography was performed under fluoroscopic guidance, a 7 Fr. guide catheter was inserted through the sheath and advanced to the appropriate location where intracoronary nitroglycerin was administered. An appropriate implantation segment of coronary artery was randomly selected and a 0.014″ guidewire inserted. Quantitative Coronary Angiography (QCA) was performed to document the results. The appropriately size stent was advanced to the deployment site. The balloon was inflated at a steady rate to a pressure sufficient to achieve a balloon to artery ratio of approximately 1.1 to 1.0.
Follow up angiography was performed at the designated timepoint for each of the animals. Late lumen loss (LLL) can be expressed as: […]
The LLL is an indicator of the amount smooth muscle cell (SMC) proliferation or inhibition. It is used to measure efficacy between drugs for SMC proliferation inhibition. The smaller the LLL, the better the efficacy of the drug.
Stented portions of coronary arteries were embedded in methyl methacrylate (MMA), then divided into a target of at least three blocks of approximately similar lengths for histology evaluation. Quantitative histopathological evaluation of stented artery sections was then performed and scored as indicated. For Fibrin formation, scores ranged from 0 to 3, with a score of 0 indicating absent or rare minimal spotting around struts of the stent, a score of 1 indicating the presence of fibrin in small amounts localized only around the struts, a score of 2 indicating the moderately abundant or denser presence of fibrin around and extending beyond the struts, and a score of 3 indicating the presence of abundant and dense fibrin and/or bridging of the fibrin between the struts. The mean score was calculated and reported. The mean of each section was then averaged to provide a mean fibrin score per stent. The smaller the fibrin score, the better efficacy.

[4] = tested on: platelets (Tissue factor generated antiplatelet); conditions: cited from earlier work
[5] = tested on: blood clotting (citrated sheep blood); test: Net activated clotting time (net ACT) in citrated sheep blood (Examples 3-5); set-up: key: seconds; measured ACT minus blood control ACT (165 s); conditions: single drug, blood control 165 seconds
Protocol: The activated clotting time (ACT) evaluation of anticoagulants was performed in calcium citrate sheep blood and recorded employing the Hemochron® Response device. The ACT measurements were made in citrated sheep blood. 1.9 ml of citrated sheep blood was added to a test tube containing an activator (Hemochron@Celite@ ACT tubes, Lot F8FTE026 from Accriva Diagnostics, Inc.). A target amount of drug solution was then added into the test tube. The test tube was gently swirled so that the blood and drug were well-mixed. 0.1 ml of 0.3M calcium chloride was then added. The tube was gently shaken before being inserted into the Hemochron Response detector. The ACT read out was recorded and reported. The ACT of the control blood in the absence of any drug as first determined to establish a baseline. Here the blood control measured is 165 seconds. Then ACT was determined in the presence of different concentrations of the drug as a single component. In the following study, the net ACT (measured ACT minus blood control ACT) was utilized to visualize the synergistic effect of direct factor Xa inhibitor (Rivaroxaban) and direct factor IIa inhibitor (Argatroban) drug combinations. The figures are presented in ng/mg wherein the density of blood and tissue are approximately the same.
Example 4 is the continuation of example 3, which employed the same method as in example 3. The only difference is that the direct factor Xa inhibitor Edoxaban is used in place of direct factor Xa inhibitor Rivaroxaban.
Example 5 is the continuation of example 3, which employed the same method as in example 3. The only difference is that the direct factor Xa inhibitor Betrixaban is used in place of direct factor Xa inhibitor Rivaroxaban.

[6] = tested on: blood clotting (citrated sheep blood); test: Activated clotting time (ACT) in citrated sheep blood (Example 2); conditions: single drug, 0.6 ng/mg
Protocol: The activated clotting time (ACT) evaluation of anticoagulants was performed in calcium citrate sheep blood and recorded employing the Hemochron® Response device.
The ACT measurements were made in citrated sheep blood. 1.9 ml of citrated sheep blood was added to a test tube containing an activator (Hemochron@Celite@ ACT tubes, Lot F8FTE026 from Accriva Diagnostics, Inc.). A target amount of drug solution was then added into the test tube. The test tube was gently swirled so that the blood and drug was well-mixed. 0.1 ml of 0.3M calcium chloride was then added. The tube was gently shaken before being inserted into the Hemochron Response detector. The ACT read out was recorded and reported. The ACT of the control blood in the absence of any drug as first determined to establish a baseline. Then ACT was determined in the presence of different concentrations of the drug as a single component. Selected drug combinations were then tested to evaluate for potential synergy in action between the two drugs.

Cumulative Percent Release of drug by day 7: Argatroban [2]: at least 96.9%
Structure (SMILES): CC1CNc2c(cccc2S(=O)(=O)N[C@@H](CCCNC(=N)N)C(=O)N2CC[C@@H](C)C[C@@H]2C(=O)O)C1 (stereo partly drawn) [Argatroban]
HAoSMC proliferation inhibition [1]: small to no inhibition
IC50 for Anti-Factor IIa (Factor IIa): 0.0107 ng/mg
IC50 (Factor IIa; read-out: IC50 for Anti-Factor IIa): 0.021 µM
net ACT [3]: 56 s
LLL / smooth muscle cell proliferation compared to bare metal control stents (porcine coronary artery): larger LLLs compared to control
inhibition of fibrin formation compared to bare metal control stents (porcine coronary artery): not effective at inhibiting fibrin formation
IC50 [4]: 0.079 µM
IC50 for Tissue factor generated antiplatelet [4]: 0.04 ng/mg
net ACT ([5]; 0.15 ng/mg): 42 and 46
net ACT ([5]; 0.3 ng/mg): 54
ACT [6]: 301
